The values below come from patent US11312712B2, “Azabenzimidazoles and their use as AMPA receptor modulators” (Janssen Pharmaceutica NV, priority 2015, dated 2022).

This experiment concerns the target GluA1o-γ8 (GRIA1o-CACNG8 fusion construct) (Homo sapiens (Human), UniProt P42261+Q8WXS5). Nature of the experiment: Calcium flux assay (FLIPR), inhibition of TARP γ8 dependent AMPA receptor activity. It counts as cell-based. The note with it: GluA1o-γ8 (GRIA1o-CACNG8 fusion) in HEK293 cells, calcium flux after 15 μM glutamate. The source says: This assay was used to test compounds for their ability to inhibit TARP γ8 dependent AMPA receptor activity. The AMPA receptor is a non-selective cation channel activated by glutamate. Ionotropic glutamate receptors normally desensitize too rapidly to allow detectable calcium influx in a FLIPR assay (Strange et al. (2006). “Functional characterisation of homomeric ionotropic glutamate receptors GluR1-GluR6 in a fluorescence-based high throughput screening assay.” Comb Chem High Throughput Screen 9(2): 147-158). But, this desensitization is incomplete, and a substantial steady-state current remains in the sustained presence of glutamate (Cho et al. (2007). “Two families of TARP isoforms that have distinct effects on the kinetic properties of AMPA receptors and synaptic currents.” Neuron 55(6): 890-904).
An in vitro assay was used to determine the potency of test compounds as inhibitors of the glutamate response of the channel formed by GluA1o-γ8. To ensure a 1:1 stoichiometry of GluA1o and γ8 subunits in the expressed channel, a fusion of the cDNAs for GRIA1o and CACNG8 was used. Following Shi et al (2009) “The stoichiometry of AMPA receptors and TARPs varies by neuronal cell type.” Neuron 62(5): 633-640), the C-terminus of the cDNA for GRIA1o was fused to the N-terminus of the cDNA for γ8. The linker sequence was QQQQQQQQQQEFAT. Channels expressed with this construct appear to have similar properties to channels formed by co-expression of GRIA1o with an excess of CACNG8 (Shi et al. 2009). A clonal cell line in HEK293 cells stably expressing this construct, with a geneticin selection marker, was generated for use in this assay.
Cell expressing the GRIA1o-CACNG8 fusion construct were grown in a monolayer in 96- or 384-well microtiter plates. They were washed with assay buffer (135 mM NaCl, 4 mM KCl, 3 mM CaCl2, 1 mM MgCl2, 5 mM glucose, 10 mM HEPES, pH 7.4, 300 mOs) using a Biotek EL405 plate washer. The cells were then loaded with a calcium-sensitive dye (Calcium-5 or Calcium-6, Molecular Devices) and the test compounds at a range of concentrations. Calcium flux following the addition of 15 μM glutamate was monitored using a Molecular Devices FLIPR Tetra. The fluorescence in each well was normalized to the fluorescence of negative and positive control wells. The negative control wells had no added compounds, and the positive control wells had been incubated with 10 μM CP465022 (a non-subtype-selective AMPA receptor antagonist) (Lazzaro et al. (2002). “Functional characterization of CP-465,022, a selective, noncompetitive AMPA receptor antagonist.” Neuropharmacology 42(2): 143-153). The responses to glutamate as functions of the test compound concentrations were fitted to a four-parameter logistic function. The fitted parameter corresponding to the midpoint was taken to be the potency of inhibition of the compound. The data in Table 4 below illustrates the observed potentcy for the compounds described herein. pIC50 refers to the negative log of the IC50 in molar.
(Calcium flux is commonly read through the fluorescence of an indicator in the cells.)

Chain of GluA1o-γ8 (GRIA1o-CACNG8 fusion construct) (P42261 other isoform, or with tags, fused parts or gaps): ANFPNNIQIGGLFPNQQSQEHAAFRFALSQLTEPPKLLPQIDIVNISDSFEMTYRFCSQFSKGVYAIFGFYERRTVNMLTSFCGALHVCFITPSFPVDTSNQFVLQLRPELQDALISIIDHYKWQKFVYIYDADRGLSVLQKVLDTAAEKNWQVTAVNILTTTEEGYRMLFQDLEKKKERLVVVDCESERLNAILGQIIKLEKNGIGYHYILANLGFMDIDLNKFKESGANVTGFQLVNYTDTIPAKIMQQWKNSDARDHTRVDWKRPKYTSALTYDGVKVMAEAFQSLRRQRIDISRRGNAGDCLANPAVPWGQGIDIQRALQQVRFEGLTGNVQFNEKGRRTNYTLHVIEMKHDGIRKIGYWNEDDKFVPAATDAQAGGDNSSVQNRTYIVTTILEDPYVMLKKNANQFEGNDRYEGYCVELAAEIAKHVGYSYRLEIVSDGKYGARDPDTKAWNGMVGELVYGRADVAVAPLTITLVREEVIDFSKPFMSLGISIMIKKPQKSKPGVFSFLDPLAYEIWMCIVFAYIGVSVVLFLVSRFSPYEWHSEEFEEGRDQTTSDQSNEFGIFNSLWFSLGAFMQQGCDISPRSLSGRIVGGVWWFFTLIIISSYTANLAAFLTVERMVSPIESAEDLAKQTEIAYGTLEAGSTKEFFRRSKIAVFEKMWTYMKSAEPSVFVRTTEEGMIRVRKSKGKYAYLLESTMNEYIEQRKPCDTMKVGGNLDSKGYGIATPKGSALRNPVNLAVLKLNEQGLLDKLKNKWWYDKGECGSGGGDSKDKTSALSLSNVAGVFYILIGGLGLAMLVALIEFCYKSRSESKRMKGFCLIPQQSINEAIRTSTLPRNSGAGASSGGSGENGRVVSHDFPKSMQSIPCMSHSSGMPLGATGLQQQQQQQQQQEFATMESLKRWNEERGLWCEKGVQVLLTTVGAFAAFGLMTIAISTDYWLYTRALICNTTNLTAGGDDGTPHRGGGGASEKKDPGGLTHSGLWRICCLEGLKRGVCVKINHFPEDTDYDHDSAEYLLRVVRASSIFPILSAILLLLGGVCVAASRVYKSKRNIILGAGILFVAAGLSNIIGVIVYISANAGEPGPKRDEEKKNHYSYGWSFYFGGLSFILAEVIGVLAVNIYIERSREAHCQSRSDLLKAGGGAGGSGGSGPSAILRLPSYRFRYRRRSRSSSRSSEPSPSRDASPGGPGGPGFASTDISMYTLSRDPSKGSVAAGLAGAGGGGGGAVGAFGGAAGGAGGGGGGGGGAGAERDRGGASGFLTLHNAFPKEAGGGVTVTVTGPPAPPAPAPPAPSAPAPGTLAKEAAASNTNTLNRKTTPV

Turning to `O=C1Cc2cc(-n3c(C4CCOC4)nc4ccc(C(F)(F)F)nc43)ccc2N1` (racemic) [Example 52, (racemic)-5-[2-Tetrahydrofuran-3-yl-5-(trifluoromethyl)imidazo[4,5-b]pyridin-3-yl]indolin-2-one], the IC50 was 20 nM. As to `CCC(C)c1nc2ccc(C(F)(F)F)nc2n1-c1ccc2c(c1)CC(=O)N2` (racemic) [Example 96, (racemic)-5-[2-sec-Butyl-5-(trifluoromethyl)imidazo[4,5-b]pyridin-3-yl]indolin-2-one], the IC50 is 6.31 nM. In the case of `FC(F)(F)c1ccc2nc(C3CCOC3)n(-c3ccc4[nH]ncc4c3)c2n1` (racemic) [Example 100, (racemic)-3-(1H-Indazol-5-yl)-2-tetrahydrofuran-3-yl-5-(trifluoromethyl)imidazo[4,5-b]pyridine], the IC50 is 251 nM.

For `CCC(C)c1nc2ccc(C(F)(F)F)nc2n1-c1ccc2[nH]ncc2c1` (racemic) [Example 102, (racemic)-3-(1H-Indazol-5-yl)-2-sec-butyl-5-(trifluoromethyl)imidazo[4,5-b]pyridine], the IC50 is 10 nM. The value for `CC(F)c1nc2ccc(C(F)(F)F)nc2n1-c1ccc2[nH]ncc2c1` (racemic) [Example 117, (R/S)-2-(1-fluoroethyl)-3-(1H-indazol-5-yl)-5-(trifluoromethyl)imidazo[4,5-b]pyridine] was 5.01 nM; that for `O=c1[nH]c2ccc(-n3c(C4CCOC4)nc4ccc(C(F)(F)F)nc43)cc2o1` (racemic) [Example 161, (R/S)-6-[2-Tetrahydrofuran-3-yl-5-(trifluoromethyl)imidazo[4,5-b]pyridin-3-yl]-3H-1,3-benzoxazol-2-one] was 316 nM.

On to `O=C1Cc2cc(-n3c(C4CCOC4)cc4ccc(C(F)(F)F)nc43)cc(F)c2N1` (racemic) [Example 365, (RS)-7-Fluoro-5-[2-tetrahydrofuran-3-yl-6-(trifluoromethyl)pyrrolo[2,3-b]pyridin-1-yl]indolin-2-one], for which the IC50 is 0.2 nM. For `COC(C)c1cc2cccnc2n1-c1cc(C)c2c(c1)CC(=O)N2` (racemic) [Example 368, (RS)-5-[2-(1-Methoxyethyl)pyrrolo[2,3-b]pyridin-1-yl]-7-methyl-indolin-2-one] the value was 31.6 nM; for `Cc1cc(-n2c([C@@H](C)F)nc3ccc(C(F)(F)F)nc32)cc2cn[nH]c12` (single isomer, unassigned) [Example 256, (*R)-2-(1-Fluoroethyl)-3-(7-methyl-1H-indazol-5-yl)-5-(trifluoromethyl)imidazo[4,5-b]pyridine], 0.0794 nM; for `Cc1cc(-n2c([C@H](C)F)nc3ccc(C(F)(F)F)nc32)cc2cn[nH]c12` (single isomer, unassigned) [Example 257, (*S)-2-(1-Fluoroethyl)-3-(7-methyl-1H-indazol-5-yl)-5-(trifluoromethyl)imidazo[4,5-b]pyridine], 0.0501 nM. On to `CC[C@@H](C)c1nc2ccc(C(F)(F)F)nc2n1-c1cc(Cl)c2[nH]ncc2c1` (single isomer, unassigned) [Example 404, (*R)-2-(sec-Butyl)-3-(7-chloro-1H-indazol-5-yl)-5-(trifluoromethyl)-3H-imidazo[4,5-b]pyridine], for which the half-inhibitory concentration (IC50) was 0.1 nM. As for `CC[C@H](C)c1nc2ccc(C(F)(F)F)nc2n1-c1cc(Cl)c2[nH]ncc2c1` (single isomer, unassigned) [Example 405, (*S)-2-(sec-Butyl)-3-(7-chloro-1H-indazol-5-yl)-5-(trifluoromethyl)-3H-imidazo[4,5-b]pyridine], the IC50 was 0.0631 nM. For `CC[C@@H](C)c1nc2ccc(C(F)(F)F)nc2n1-c1cc(C)c2[nH]ncc2c1` (single isomer, unassigned) [Example 406, (*R)-2-(sec-Butyl)-3-(7-methyl-1H-indazol-5-yl)-5-(trifluoromethyl)-3H-imidazo[4,5-b]pyridine], the half-maximal inhibitory concentration (IC50) was 0.126 nM.

As for `CC[C@H](C)c1nc2ccc(C(F)(F)F)nc2n1-c1cc(C)c2[nH]ncc2c1` (single isomer, unassigned) [Example 407, (*S)-2-(sec-Butyl)-3-(7-methyl-1H-indazol-5-yl)-5-(trifluoromethyl)-3H-imidazo[4,5-b]pyridine], the IC50 is 0.1 nM. For `C[C@@H](F)c1nc2ccc(C(F)(F)F)nc2n1-c1cc(Cl)c2[nH]ncc2c1` (single isomer, unassigned) [Example 408, (*R)-3-(7-Chloro-1H-indazol-5-yl)-2-(1-fluoroethyl)-5-(trifluoromethyl)-3H-imidazo[4,5-b]pyridine] the value was 0.1 nM.

In the case of `C[C@H](F)c1nc2ccc(C(F)(F)F)nc2n1-c1cc(Cl)c2[nH]ncc2c1` (single isomer, unassigned) [Example 409, (*S)-3-(7-Chloro-1H-indazol-5-yl)-2-(1-fluoroethyl)-5-(trifluoromethyl)-3H-imidazo[4,5-b]pyridine], the IC50 is 0.0794 nM. Take `FC(F)(F)c1ccc2nc(-c3ccccc3)n(-c3ccc4[nH]ncc4c3)c2n1` [Example 1, 3-(1H-Indazol-5-yl)-2-phenyl-5-(trifluoromethyl)-3H-imidazo[4,5-b]pyridine]: the IC50 was 0.398 nM.

With `c1ccc(-c2nc3cccnc3n2-c2ccc3[nH]ncc3c2)cc1` [Example 2, 3-(1H-Indazol-5-yl)-2-phenyl-imidazo[4,5-b]pyridine], the IC50 is 50.1 nM. For `Cc1ccc2nc(-c3ccccc3)n(-c3ccc4[nH]ncc4c3)c2n1` [Example 3, 3-(1H-Indazol-5-yl)-5-methyl-2-phenyl-imidazo[4,5-b]pyridine] the value was 0.794 nM; for `Cc1ccc2nc(-c3ccc(F)cc3)n(-c3ccc4[nH]ncc4c3)c2n1` [Example 4, 2-(4-Fluorophenyl)-3-(1H-indazol-5-yl)-5-methyl-imidazo[4,5-b]pyridine], 1 nM; for `COc1ccc2nc(-c3ccc(F)cc3)n(-c3ccc4[nH]ccc4c3)c2n1` [Example 5, 2-(4-Fluorophenyl)-3-(1H-indol-5-yl)-5-methoxy-imidazo[4,5-b]pyridine], 39.8 nM. As to `COc1ccc2nc(-c3ccc(F)cc3)n(-c3ccc4c(c3)CC(=O)N4)c2n1` [Example 6, 5-[2-(4-Fluorophenyl)-5-methoxy-imidazo[4,5-b]pyridin-3-yl]indolin-2-one], the 50% inhibitory concentration (IC50) was 39.8 nM.

On to `Fc1ccc(-c2nc3ccc(Cl)nc3n2-c2ccc3[nH]ncc3c2)cc1` [Example 7, 5-Chloro-2-(4-fluorophenyl)-3-(1H-indazol-5-yl)imidazo[4,5-b]pyridine], for which the IC50 was 2 nM. For `Cc1ccc2nc(-c3ccccc3Cl)n(-c3ccc4[nH]ncc4c3)c2n1` [Example 8, 2-(2-Chlorophenyl)-3-(1H-indazol-5-yl)-5-methyl-imidazo[4,5-b]pyridine], the IC50 is 63.1 nM.

As to `Cc1cnc2c(c1)nc(-c1ccccc1)n2-c1ccc2[nH]ncc2c1` [Example 9, 3-(1H-Indazol-5-yl)-6-methyl-2-phenyl-imidazo[4,5-b]pyridine], the half-maximal inhibitory concentration (IC50) is 25.1 nM. The value for `Clc1ccc2nc(-c3ccccc3)n(-c3ccc4[nH]ncc4c3)c2n1` [Example 10, 5-Chloro-3-(1H-indazol-5-yl)-2-phenyl-imidazo[4,5-b]pyridine] was 1 nM; that for `Clc1ccc2nc(C3CCCC3)n(-c3ccc4[nH]ncc4c3)c2n1` [Example 11, 5-Chloro-2-cyclopentyl-3-(1H-indazol-5-yl)imidazo[4,5-b]pyridine] was 10 nM.

One may read the IC50 as the concentration that inhibits the measured activity by half.
